Laboratory results published in patent US4275057A (The United States of America as represented by the …, priority 1980, dated 1981).

Experiments:
[1] = system: adenosine deaminase; settings: qualitative statement; cited from earlier work
[2] = molecular target: T1, Mouse kidney cytidine deaminase (Mus musculus, UniProt P56389); assay: Cytidine deaminase inhibition, mouse kidney enzyme; type: biochemical
T1 construct: isolated and partially purified from mouse kidney acetone powder; tissue Sigma Chemical Co; host or cells: mouse kidney (acetone powder, buffer extract, ammonium sulfate fractionation)
T1 sequence (P56389 whole entry): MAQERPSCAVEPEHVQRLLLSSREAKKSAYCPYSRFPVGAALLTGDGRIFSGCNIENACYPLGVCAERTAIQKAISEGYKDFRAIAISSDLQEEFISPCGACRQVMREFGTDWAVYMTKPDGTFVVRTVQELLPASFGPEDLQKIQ

[3] = molecular target: T2, Cytidine deaminase from human liver (Homo sapiens, UniProt P32320); assay: Cytidine deaminase inhibition, human liver enzyme; type: biochemical
T2 construct: Cytidine deaminase from human liver was isolated; from tissue; host or cells: human liver
T2 sequence (P32320 whole entry): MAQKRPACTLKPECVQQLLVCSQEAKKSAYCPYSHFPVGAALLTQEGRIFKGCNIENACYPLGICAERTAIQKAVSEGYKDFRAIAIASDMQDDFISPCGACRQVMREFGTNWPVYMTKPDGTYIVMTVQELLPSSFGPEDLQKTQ

Question: With `OC[C@H]1O[C@@H](n2cnc3c2N=CNC[C@H]3O)C[C@@H]1O` [2'-deoxycoformycin] as the compound, how does the “inhibition of adenosine deaminase (in words)” value [1] read?
Answer: The value was “very potent adenosine deaminase inhibitor”.

Question: Which Ki [2] does the source give for `O=C1NCCCCN1C1C[C@H](O)[C@@H](CO)O1` (stereo partly drawn) [Compound 3d, 1-(2-deoxy-D-erythro-pentofuranosyl)-perhydro-1,3-diazepin-2-one] here?
Answer: Its Ki is 0.2 µM.

Question: For `O=C1CCNC(=O)N([C@@H]2O[C@H](CO)[C@@H](O)[C@H]2O)C1` [Compound 8b, 3-(β-D-Ribofuranosyl)-5-keto-perhydro-1,3-diazepin-2-one], which Ki [2] is on record?
Answer: Its Ki is 10 µM.

Question: What about the Ki [3] of the same compound?
Answer: Its Ki is 10 µM.
